The values below come from the supplement of paper PMC10307832.

Assay in all cases: relative viability (nuclei count vs DMSO), 5 days (fraction); higher = more cells survive
Compound in experiment [1]: Cn1cnc2c(F)c(Nc3ccc(Br)cc3Cl)c(C(=O)NOCCO)cc21 [Selumetinib] + CC1(C)CCC(c2ccc(Cl)cc2)=C(CN2CCN(c3ccc(C(=O)NS(=O)(=O)c4ccc(N[C@H](CCN5CCOCC5)CSc5ccccc5)c(S(=O)(=O)C(F)(F)F)c4)cc3)CC2)C1 [Navitoclax] (partner 0.5 µM)
The method, boiled down: (§1)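 Lung cancer cell lines in 1536-well plates got either a single drug or a fixed anchor-drug dose together with five library-drug doses (not always all listed) in √10 steps, by pin tool, on the day after seeding. Nuclei were counted after 5 days, and relative viability is the treated-to-vehicle ratio of nuclei counts. Values are medians of duplicate plates.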

Compound in experiment [2]: CC1(C)CCC(CN2CCN(c3ccc(C(=O)NS(=O)(=O)c4ccc(NCC5CCOCC5)c([N+](=O)[O-])c4)c(Oc4cnc5[nH]ccc5c4)c3)CC2)=C(c2ccc(Cl)cc2)C1 [Venetoclax] + C[C@@H](Oc1cc(-c2cnn(C3CCNCC3)c2)cnc1N)c1c(Cl)ccc(F)c1Cl [Crizotinib] (partner 1 µM)
The method, boiled down: as §1

Compound in experiment [3]: Cn1cnc2c(F)c(Nc3ccc(Br)cc3Cl)c(C(=O)NOCCO)cc21 [Selumetinib] + CCNC(=O)c1noc(-c2cc(C(C)C)c(O)cc2O)c1-c1ccc(CN2CCOCC2)cc1 [Luminespib] (partner 0.01 µM)
In a few lines: as §1

Compound in experiment [4]: Cn1cnc2c(F)c(Nc3ccc(Br)cc3Cl)c(C(=O)NOCCO)cc21 [Selumetinib] + Cc1nc(Nc2ncc(C(=O)Nc3c(C)cccc3Cl)s2)cc(N2CCN(CCO)CC2)n1 [Dasatinib] (partner 0.075 µM)
The method, boiled down: as §1

For the cell line 201T, the relative viability came to 1.17 in experiment [1] (first compound 0.02 µM); 1.14 in experiment [1] (first compound 0.06325 µM); 1.17 in experiment [1] (first compound 0.2 µM); 1.15 in experiment [1] (first compound 0.6325 µM); 1.01 in experiment [2] (first compound 0.01 µM); 0.995 in experiment [2] (first compound 0.03162 µM). Moreover, the relative viability in experiment [2] (first compound 0.1 µM) turned out to be 0.989; in experiment [2] (first compound 0.3162 µM), 0.948; in experiment [2] (first compound 1 µM), 1.05; in experiment [3] (first compound 0.02 µM) it was 1.08; in experiment [3] (first compound 0.06325 µM), 1.03; in experiment [3] (first compound 0.2 µM), 0.962. Further, the relative viability in experiment [3] (first compound 0.6325 µM) turned out to be 0.906; in experiment [4] (first compound 0.02 µM), 0.589; in experiment [4] (first compound 0.06325 µM) it was 0.571; in experiment [4] (first compound 0.2 µM), 0.585; in experiment [4] (first compound 0.6325 µM), 0.555.
On to A549, for which the relative viability in experiment [1] (first compound 0.02 µM) came out at 0.945; in experiment [1] (first compound 0.06325 µM) it was 0.904; in experiment [1] (first compound 0.2 µM), 0.734; in experiment [1] (first compound 0.6325 µM) it was 0.596; in experiment [2] (first compound 0.01 µM) it was 0.707; in experiment [2] (first compound 0.03162 µM), 0.668. Further, the relative viability was found to be 0.886 in experiment [2] (first compound 0.1 µM), 0.649 in experiment [2] (first compound 0.3162 µM) and 0.61 in experiment [2] (first compound 1 µM).
In the case of A-427, the relative viability is 1.02 in experiment [1] (first compound 0.02 µM); 0.868 in experiment [1] (first compound 0.06325 µM); 0.76 in experiment [1] (first compound 0.2 µM); 0.68 in experiment [1] (first compound 0.6325 µM); 0.584 in experiment [2] (first compound 0.01 µM); 1.09 in experiment [2] (first compound 0.03162 µM). Moreover, the relative viability in experiment [2] (first compound 0.1 µM) is 0.873; in experiment [2] (first compound 0.3162 µM) it was 0.924; in experiment [2] (first compound 1 µM), 1; in experiment [3] (first compound 0.02 µM) it was 0.901; in experiment [3] (first compound 0.06325 µM), 0.986; in experiment [3] (first compound 0.2 µM), 0.953. The relative viability is 0.874 in experiment [3] (first compound 0.6325 µM); 0.785 in experiment [4] (first compound 0.02 µM); 0.729 in experiment [4] (first compound 0.06325 µM); 0.555 in experiment [4] (first compound 0.2 µM); 0.407 in experiment [4] (first compound 0.6325 µM).
ABC-1: the relative viability in experiment [2] (first compound 0.01 µM) worked out at 0.921; in experiment [2] (first compound 0.03162 µM) it was 0.99; in experiment [2] (first compound 0.1 µM), 1.06; in experiment [2] (first compound 0.3162 µM) it was 1.12; in experiment [2] (first compound 1 µM) it was 1.04; in experiment [3] (first compound 0.02 µM), 0.581. The relative viability in experiment [3] (first compound 0.06325 µM) was determined as 0.422; in experiment [3] (first compound 0.2 µM), 0.607; in experiment [3] (first compound 0.6325 µM), 0.314; in experiment [4] (first compound 0.02 µM), 0.512; in experiment [4] (first compound 0.06325 µM), 0.37; in experiment [4] (first compound 0.2 µM), 0.47. Further, the relative viability in experiment [4] (first compound 0.6325 µM) is 0.566.
In the case of BEN, the relative viability in experiment [1] (first compound 0.02 µM) worked out at 0.0655; in experiment [1] (first compound 0.06325 µM) it was 0.0564; in experiment [1] (first compound 0.2 µM), 0.0657; in experiment [1] (first compound 0.6325 µM), 0.0674; in experiment [2] (first compound 0.01 µM), 0.825; in experiment [2] (first compound 0.03162 µM) it was 0.81. The relative viability in experiment [2] (first compound 0.1 µM) was found to be 0.727; in experiment [2] (first compound 0.3162 µM) it was 0.851; in experiment [2] (first compound 1 µM) it was 0.817; in experiment [3] (first compound 0.02 µM) it was 0.28; in experiment [3] (first compound 0.06325 µM) it was 0.83; in experiment [3] (first compound 0.2 µM) it was 0.404. The relative viability came to 0.347 in experiment [3] (first compound 0.6325 µM); 0.295 in experiment [4] (first compound 0.02 µM); 0.341 in experiment [4] (first compound 0.06325 µM); 0.368 in experiment [4] (first compound 0.2 µM); 0.371 in experiment [4] (first compound 0.6325 µM).
As for CAL-12T, the relative viability in experiment [1] (first compound 0.02 µM) worked out at 1.28; in experiment [1] (first compound 0.06325 µM) it was 1.36; in experiment [1] (first compound 0.2 µM) it was 0.986; in experiment [1] (first compound 0.6325 µM), 0.921; in experiment [2] (first compound 0.01 µM) it was 0.65; in experiment [2] (first compound 0.03162 µM), 0.567. Besides, the relative viability in experiment [2] (first compound 0.1 µM) was found to be 0.595; in experiment [2] (first compound 0.3162 µM), 0.527; in experiment [2] (first compound 1 µM), 0.555; in experiment [3] (first compound 0.02 µM), 0.322; in experiment [3] (first compound 0.06325 µM), 0.365; in experiment [3] (first compound 0.2 µM), 0.284. Moreover, the relative viability turned out to be 0.362 in experiment [3] (first compound 0.6325 µM); 0.363 in experiment [4] (first compound 0.02 µM); 0.258 in experiment [4] (first compound 0.06325 µM); 0.285 in experiment [4] (first compound 0.2 µM); 0.258 in experiment [4] (first compound 0.6325 µM).
Take COR-L23: the relative viability in experiment [1] (first compound 0.02 µM) worked out at 1.05; in experiment [1] (first compound 0.06325 µM), 0.926; in experiment [1] (first compound 0.2 µM), 1.06; in experiment [1] (first compound 0.6325 µM), 1.04; in experiment [2] (first compound 0.01 µM), 0.631; in experiment [2] (first compound 0.03162 µM) it was 0.696. In addition, the relative viability worked out at 0.601 in experiment [2] (first compound 0.1 µM); 0.778 in experiment [2] (first compound 0.3162 µM); 0.543 in experiment [2] (first compound 1 µM); 0.644 in experiment [3] (first compound 0.02 µM); 0.637 in experiment [3] (first compound 0.06325 µM); 0.721 in experiment [3] (first compound 0.2 µM). The relative viability was 0.409 in experiment [3] (first compound 0.6325 µM); 0.462 in experiment [4] (first compound 0.02 µM); 0.488 in experiment [4] (first compound 0.06325 µM); 0.488 in experiment [4] (first compound 0.2 µM); 0.47 in experiment [4] (first compound 0.6325 µM).
Take COR-L 105: the relative viability in experiment [1] (first compound 0.02 µM) is 0.78; in experiment [1] (first compound 0.06325 µM), 0.574; in experiment [1] (first compound 0.2 µM), 0.642; in experiment [1] (first compound 0.6325 µM), 0.451; in experiment [2] (first compound 0.01 µM), 0.717; in experiment [2] (first compound 0.03162 µM) it was 0.638. In addition, the relative viability in experiment [2] (first compound 0.1 µM) stood at 0.669; in experiment [2] (first compound 0.3162 µM), 0.738; in experiment [2] (first compound 1 µM) it was 0.698; in experiment [3] (first compound 0.02 µM), 0.769; in experiment [3] (first compound 0.06325 µM), 0.689; in experiment [3] (first compound 0.2 µM), 0.46. Also, the relative viability in experiment [3] (first compound 0.6325 µM) came to 0.404; in experiment [4] (first compound 0.02 µM), 0.328; in experiment [4] (first compound 0.06325 µM) it was 0.239; in experiment [4] (first compound 0.2 µM) it was 0.224; in experiment [4] (first compound 0.6325 µM) it was 0.22.
In the case of Calu-6, the relative viability amounted to 0.727 in experiment [1] (first compound 0.02 µM); 0.513 in experiment [1] (first compound 0.06325 µM); 0.355 in experiment [1] (first compound 0.2 µM); 0.234 in experiment [1] (first compound 0.6325 µM); 0.79 in experiment [2] (first compound 0.01 µM); 0.798 in experiment [2] (first compound 0.03162 µM). For the same cell line, the results for the relative viability in experiment [2] (first compound 0.1 µM), in experiment [2] (first compound 0.3162 µM) and in experiment [2] (first compound 1 µM) were 0.794, 0.776 and 0.72, respectively.
